# Test system: A431 cells
# Experiment: Binding of FITC-labeled EGFm1 to A431 cells, flow cytometry
# Type: cell-based
# Protocol: • Fig. 1: Schematic representation of the strategy to isolate side-chain deaminated ligands (A) or side-chain decarboxylated ligands (B). Randomization in approach A is performed by using sets of amino acids (X) devoid of lysines or lysines and arginines. Randomization in approach B is performed by using sets of amino acids (X) devoid of aspartic acids (Asp) and glutamic acids (Glu). • Fig. 2: Schematic representation of the strategy of side-chain elimination/addition (A) or side-chain group reduction (B), both examplified for elimination or reduction of cysteine residues. In these examples randomization is performed by using sets of amino acids (X) devoid of cysteines (Cys). Both approaches can be applied equally for any other amino acid residues. • Fig. 3: Amino acid sequences of EGF of various species. The positions of lysine and arginine residues is highlighted by grey boxes. • Fig. 4: (A) IMAC purification of recombinant HisEGFm1 from bacterial periplasm. Eluted fractions were analyzed on a 20% SDS-Tricine gel (HisEGFm1 is indicated by an arrowhead). Recombinant human EGF was included as control. (B) Size exclusion chromatography of purified EGFwt and HisEGFm1 on a superose 12 column. The positions of BSA (67 kDa), Ovalbumin (43 kDa) and Myoglobin (17 kDa) are indicated by arrows. (C) Competition of binding of fdEGF to A431 by EGFwt or HisEGFm1. • Fig. 5: Binding of FITC-labeled EGFm1 to A431. A) FITC-labeled HisEGFm1 was incubated with A431 at varying concentrations and binding was analyzed by flow cytometry (0, cells without EGFm1; 1, 17 ng/ml; 2 50 ng/ml; 3, 170 ng/ml). B) Competition of FITC-labeled EGFm1 at 170 ng/ml without (1) or with (2) excess amounts of unlabelled EGFwt. C) Control experiments with BSA. • Fig. 6: (A) Binding of EGFm1 liposomes to A431 cells.
# EGFwt or EGFm1 (50 µg) were diluted to a conc. of 500 µg/ml and the pH was adjusted to 9.0 with carbonate buffer pH 9.5. FITC was added at a 10-fold molar excess and incubated overnight at 4°C. […] Fluorescence intensity was determined using a fluorescence spectrophotometer (Victor^2; Wallac, Freiburg, Germany). […]
substance,measurement,setting,value
Fluorescein-labeled EGFm1: EGFm1 labeled with fluorescein-isothiocyanate at the N-terminal amino group (NSDSECPLSHDGYCLHDGVCMYIEALDQYACNCVVGYIGERCQYSDLSWWELS; not fully specified; left off: small tags and cut ends),competition of binding to A431,"excess amounts of unlabeled EGFwt, BSA as control",could be competed with excess amounts of unlabeled EGFwt but not with BSA
same,binding to A431 reached saturation at,"fluorescein-labeled protein, flow cytometry",approximately 50 ng/ml
same,binding to A431 cells,"fluorescein-labeled protein, varying concentrations",strong and concentration-dependent binding

# — patent publication EP1557429A1, “Site-directed coupling of proteins” (Vectron Therapeutics AG, priority 2004, dated 2005)
